# Laboratory results published in patent US9610236B2, “Cosmetic use of Queuine” (AMABIOTICS, priority 2013, dated 2017).
# “Also recorded” adds a separate entry of the source.
# Assays:
# Assay type in all cases: cell-based
# [1] = test system: HDFa, adult human dermal fibroblasts; assay: Cell proliferation, BrdU assay; details: for Mean ODs (BrdU cell proliferation): OD 450 nm
# Description: (§1) The stock solution of queuine was prepared with 15 mg/ml methanol and the dilutions were obtained in DMEM (Dulbecco's Modified […]) in the presence of variable concentrations of foetal calf serum (FCS) (DMEM+2.5% FCS+antibiotics (penicillin/streptomycin)+glutamine): depleted medium with 2.5% FCS for the viability, proliferation and cell migration experiments.
# This first assay allowed fine-tuning of the applied concentration range. The dilution range for the assay of cell proliferation kinetics was as follows:
# (§2) Cell type: HDFa, adult human dermal fibroblasts, person, used between passage 4 and passage 6.
# (§3) The adult HDFs used were seeded to a proportion of 5×10^3 cells/well in 96-well plates (passage 4) in 200 μl culture medium without FCS (supplemented DMEM+0% FCS). 24 h after seeding, the culture medium was changed and the different dilutions of the product or its carrier (methanol) were added at 200 μl per well, with 3 wells per culture condition.
# Cell proliferation was evaluated using an assay of ELISA type (BrdU assay, Bromodeoxyuridine) after 1, 2 and 3 days of culture.
# BrdU is a synthetic nucleoside and an analogue of thymidine, which can be recognised by an anti-BrdU antibody. It is incorporated during DNA replication of the proliferating cells. The anti-BrdU antibody is coupled to an enzyme which, in the presence of its substrate, will degrade the latter. Detection of BrdU is therefore carried out by colorimetric enzymatic assay.
# Degradation of the enzyme substrate will stain the supernatant proportional to the amount of incorporated BrdU. Measurement is then performed by read-out of optical density (OD) using a spectrophotometer at a wavelength of 450 nm. The assay was conducted at D1, D2 and D3 (D0 corresponding to the time of addition of the solutions to be assayed).
# [2] = test system: HDFa, adult human dermal fibroblasts; assay: Cell migration into calibrated acellular gap (culture inserts, image comparison); details: 24 h
# Description: The dilution range prepared for evaluating migration was identical to the range for evaluating kinetics with the exclusion of the 0.3 μg/ml concentration. The adult HDFs used were seeded in the presence of previously sterilised culture inserts which allowed the creation of calibrated acellular regions. 100,000 HDFa in 600 μl and 30,000 cells in 150 μl were respectively added outside and inside the inserts, in DMEM+2.5% FCS. After an incubation time of 5 h at 37° C., the inserts were removed and the wells washed twice with PBS 1× to eliminate every cell which had not adhered. The queuine molecule was then added at 30, 10, 3 or 1 μg/ml in DMEM 2.5% FCS, and an equivalent range of methanol was also carried out, two wells per condition. The wells were photographed at t=0 h and the plates then incubated for 24 h. The cells were fixed with paraformaldehyde before taking photos at 24 h. The images were analysed using ImageJ software, to improve the contrast thereof. All fields were examined and the two most representative of each condition were chosen for each time indication. Analysis was performed by comparison with the control. The adult HDFs were seeded in the presence of previously sterilised culture inserts, to create calibrated acellular regions in a confluent cell mat. The cells tend to fill the gap created by migrating from the edges to close the gap. After 5 h incubation at 37° C., the inserts were removed and the wells washed twice in PBS 1× to eliminate every non-adhering cell. Queuine was then added at 30, 10, 3 or 1 μg/ml in DMEM 2.5% FCS and an equivalent range of methanol was also prepared, two wells per condition. Photos of the wells were taken at t=0 h. The cells were cultured 24 h at 37° C., before being fixed in paraformaldehyde. Photos were taken at t=24 h. The photos were compared with each other to assess the difference in cell migration into the gap between the different assayed conditions.
# [3] = test system: HDFa, adult human dermal fibroblasts; assay: Cytotoxicity / cell viability, MTT assay; details: for Mean - blank (cell viability OD) / OD mean values (cell viability) / Mean OD values (cell viability): MTT; for OD mean values (cell viability) / Mean OD values (cell viability): OD 570 nm; for OD mean values (cell viability): DMEM 2.5% FCS
# Description: as §1
# The dilution range prepared for the toxicity/viability assay was the following:
# as §2, §3
# Cell proliferation was evaluated using a colorimetric assay (MTT assay) after culture times of 1, 2 and 3 days. This assay is based on reduction of the yellow tetrazolium salt (MTT) [3-(4,5-dimethylthiazol bromide] to a blue-purple formazan product by the mitochondrial NADPH reductases of the cells, provided they are living. The crystals were then dissolved in 100% ethanol—DMSO mixture (v/v). Colouring of the supernatant, proportional to the number of living cells, was measured by optical density (OD) read-out on a spectrophotometer at a wavelength of 570 nm. The assay was conducted at D1, D2 and D3 (D0 corresponding to the time of addition of the solutions to be assayed).
# The mean OD values of the triplicates are given on a graph for each kinetic time. Standard deviations are indicated.
structure (smiles),measurement,setting,value
"Nc1nc2[nH]cc(CN[C@H]3C=C[C@H](O)[C@@H]3O)c2c(=O)[nH]1 [Queuine, 2-amino-5-((((1s,4s,5r)-4,5-dihydroxy-2-cyclopenten-1-yl)amino)methyl)-1,7-dihydro-4h-pyrrolo(2,3-d)pyrimidin-4-one]",Mean - blank (BrdU OD),"[1]; 0.3 μg/ml, 24 h contact time",1.181
same,Mean ODs (BrdU cell proliferation),"[1]; 0.3 μg/ml, 24 h contact time, DMEM 2.5% FCS",1.312
same,Mean - blank (BrdU OD),"[1]; 0.3 μg/ml, 48 h contact time",0.677
same,Mean ODs (BrdU cell proliferation),"[1]; 0.3 μg/ml, 48 h contact time, shortened substrate incubation",0.800
same,Mean - blank (BrdU OD),"[1]; 0.3 μg/ml, 72 h contact time",0.416
same,Mean ODs (BrdU cell proliferation),"[1]; 0.3 μg/ml, 72 h contact time, shortened substrate incubation",0.586
same,Mean - blank (BrdU OD),"[1]; 1 μg/ml, 24 h contact time",1.197
same,Mean ODs (BrdU cell proliferation),"[1]; 1 μg/ml, 24 h contact time, DMEM 2.5% FCS",1.328
same,Mean - blank (BrdU OD),"[1]; 1 μg/ml, 48 h contact time",0.803
same,Mean ODs (BrdU cell proliferation),"[1]; 1 μg/ml, 48 h contact time, shortened substrate incubation",0.926
same,Mean - blank (BrdU OD),"[1]; 1 μg/ml, 72 h contact time",0.378
same,Mean ODs (BrdU cell proliferation),"[1]; 1 μg/ml, 72 h contact time, shortened substrate incubation",0.548
same,Mean - blank (BrdU OD),"[1]; 3 μg/ml, 24 h contact time",.391
same,Mean ODs (BrdU cell proliferation),"[1]; 3 μg/ml, 24 h contact time, DMEM 2.5% FCS",1.522
same,Mean - blank (BrdU OD),"[1]; 3 μg/ml, 48 h contact time",0.793
same,Mean ODs (BrdU cell proliferation),"[1]; 3 μg/ml, 48 h contact time, shortened substrate incubation",0.915
same,Mean - blank (BrdU OD),"[1]; 3 μg/ml, 72 h contact time",0.511
same,Mean ODs (BrdU cell proliferation),"[1]; 3 μg/ml, 72 h contact time, shortened substrate incubation",0.681
same,Mean - blank (BrdU OD),"[1]; 10 μg/ml, 24 h contact time",1.494
same,Mean ODs (BrdU cell proliferation),"[1]; 10 μg/ml, 24 h contact time, DMEM 2.5% FCS",1.625
same,Mean - blank (BrdU OD),"[1]; 10 μg/ml, 48 h contact time",0.943
same,Mean ODs (BrdU cell proliferation),"[1]; 10 μg/ml, 48 h contact time, shortened substrate incubation",1.066
same,Mean - blank (BrdU OD),"[1]; 10 μg/ml, 72 h contact time",0.538
same,Mean ODs (BrdU cell proliferation),"[1]; 10 μg/ml, 72 h contact time, shortened substrate incubation",0.708
same,Mean - blank (BrdU OD),"[1]; 30 μg/ml, 24 h contact time",1.502
same,Mean ODs (BrdU cell proliferation),"[1]; 30 μg/ml, 24 h contact time, DMEM 2.5% FCS",1.634
same,Mean - blank (BrdU OD),"[1]; 30 μg/ml, 48 h contact time",1.026
same,Mean ODs (BrdU cell proliferation),"[1]; 30 μg/ml, 48 h contact time, shortened substrate incubation",1.149
same,Mean - blank (BrdU OD),"[1]; 30 μg/ml, 72 h contact time",0.787
same,Mean ODs (BrdU cell proliferation),"[1]; 30 μg/ml, 72 h contact time, shortened substrate incubation",0.958
same,proliferative effect,"[1]; 3, 10 and 30 μg/ml after 72 hours' incubation",a proliferative effect is evidenced
same,proliferative effect,"[1]; 72 hours, 30 μg/ml",particularly pronounced; also recorded: major proliferative effect
same,proliferative effect,"[1]; 72 hours, 3 and 10 μg/ml",clear proliferative effect
same,proliferative effect compared with the carrier,[1]; short times (24 and 48 hours),no significant effect
same,migration compared with 2.5% FCS control,[2]; 10 μg/ml and 30 μg/ml in 2.5% FCS,better migration than in 2.5% FCS
same,effect on migration of the fibroblasts,[2]; 10 μg/ml,has an effect on migration of the fibroblasts; also recorded: has an effect on the migration of adult HDFs
same,gap closure (observation of photos),[2]; 30 μg/ml in 2.5% FCS,the cells of the two edges meet in the centre of the gap
same,effect on migration of the fibroblasts,[2]; 30 μg/ml,confirmed
same,migration compared with positive 10% FCS control,[2]; 10 and 30 μg/ml,equivalent to that obtained with the positive 10% FCS control
same,Mean - blank (cell viability OD),"[3]; 0.1 μg/ml, 24 h contact time",0.133
same,OD mean values (cell viability),"[3]; 0.1 μg/ml, 24 h contact time",0.228
same,Mean - blank (cell viability OD),"[3]; 0.1 μg/ml, 48 h contact time",0.219
same,Mean OD values (cell viability),"[3]; 0.1 μg/ml, 48 h contact time",0.304
same,Mean - blank (cell viability OD),"[3]; 0.1 μg/ml, 72 h contact time",0.223
same,Mean OD values (cell viability),"[3]; 0.1 μg/ml, 72 h contact time",0.341
same,Mean - blank (cell viability OD),"[3]; 1 μg/ml, 24 h contact time",0.155
same,OD mean values (cell viability),"[3]; 1 μg/ml, 24 h contact time",0.250
same,Mean - blank (cell viability OD),"[3]; 1 μg/ml, 48 h contact time",0.246
same,Mean OD values (cell viability),"[3]; 1 μg/ml, 48 h contact time",0.331
same,Mean - blank (cell viability OD),"[3]; 1 μg/ml, 72 h contact time",0.244
same,Mean OD values (cell viability),"[3]; 1 μg/ml, 72 h contact time",0.362
same,Mean - blank (cell viability OD),"[3]; 10 μg/ml, 24 h contact time",0.151
same,OD mean values (cell viability),"[3]; 10 μg/ml, 24 h contact time",0.246
same,Mean - blank (cell viability OD),"[3]; 10 μg/ml, 48 h contact time",0.243
same,Mean OD values (cell viability),"[3]; 10 μg/ml, 48 h contact time",0.328
same,Mean - blank (cell viability OD),"[3]; 10 μg/ml, 72 h contact time",0.277
same,Mean OD values (cell viability),"[3]; 10 μg/ml, 72 h contact time",0.395
same,Mean - blank (cell viability OD),"[3]; 100 μg/ml, 24 h contact time",0.138
same,OD mean values (cell viability),"[3]; 100 μg/ml, 24 h contact time",0.233
same,Mean - blank (cell viability OD),"[3]; 100 μg/ml, 48 h contact time",0.188
same,Mean OD values (cell viability),"[3]; 100 μg/ml, 48 h contact time",0.273
same,Mean - blank (cell viability OD),"[3]; 100 μg/ml, 72 h contact time",0.154
same,Mean OD values (cell viability),"[3]; 100 μg/ml, 72 h contact time",0.272
same,cytotoxic effect,"[3]; 100 μg/ml, at 48 h",exhibited a cytotoxic effect
same,cytotoxic effect,[3]; concentrations below 100 μg/ml,do not exhibit any cytotoxic effect; also recorded: did not display any cytotoxic effect
